For experiment [1], the system named is Capsaicin Induced Currents recorded from Nasally Innervated Guinea-Pig Trigeminal Ganglia Cell Bodies. Put plainly: Whole cell patch clamp of capsaicin induced currents in nasally innervated trigeminal ganglia neurons. It counts as cell-based. Here is the method:
Nasal afferent neurons were retrogradely labelled by using DiIC13(3) solution (2% in DMSO, sonicated to ensure solubility) (Dil, Invitrogen), A guinea pig was dosed with atropine (1 mg/kg i.p.) 5 minutes prior to anaesthesia with isoflurane. Once unconscious 25 μl of the Dil solution was placed into the right nostril and the guinea pig allowed to recover. After 24 hours the procedure was repeated and the left nostril dosed. After a period of 2 weeks the guinea pig was killed via CO2 asphyxiation and the trigeminal ganglia rapidly dissected. An area of approximately 3 mm×2 mm which contained neurons that innervated the nose was isolated (J. Allergy Clin. Immunol. 2005, 116, 1282), cut into smaller pieces and incubated in enzyme buffer (8 mg papain in 4 ml L-15) at 37° C. for 40 min. The papain solution was removed and the tissue washed three times with 5-5 media (5-5 Media was prepared by the addition of 5 ml Fetal Bovine Serum, 5 ml Horse Serum, 1 ml 5000 Units Penicillin/5000 […] Streptomycin, 1 ml 30% Glucose and 0.33 ml of 1× stock Insulin Transferrin Sodium Selenite to 90 ml Minimum Essential Media with Earle's salts and Glutamax). The neurons were dissociated by trituration with 3 fire-polished glass Pastuer pipettes of decreasing tip size, then the resulting cell suspension filtered and centrifuged (1000 g for 4 min). The pellet was resuspended in 300 μl of 5-5 media. 25 μl of the cell suspension was plated onto poly-D-lysine and laminin coated 12 mm glass coverslips and placed in an incubator at 37° C. After 2 hours the coverslips were flooded with 5-5 media and used within 48 hours. Conventional whole cell patch clamp techniques were employed under voltage clamp (holding potential of −70 mV) at room temperature. Drug solutions were applied to the cell using a Rapid Solution Changer (Biologic). Cell bodies that had innervated the nose were identified using a fluorescence based microscope. All data was analysed using pClamp version 10.2.0.9 and 10.2.0.10 (Molecular Devices Inc).

Experiment [2] concerns hypertonic saline provoked nasal secretion. Put plainly: Contralateral nasal fluid secretion (MRI) after ipsilateral hypertonic saline challenge in sensitised guinea pig. It counts as in vivo. To be noted: topical micronised 1 mg/ml, 1 hour pre-treatment, 10% hypertonic saline challenge; p<0.005. Here is the method: (§1) Dunkin Hartley guinea pigs (ca. 180-200 g) were intranasally sensitised into both nostrils twice daily for 5 days with 25 μl of 10 μg ovalbimun plus 10 mg aluminium hydroxide in saline. This was followed up with one week of intranasal challenge in both nostrils with ovalbumin 25 μl of a 5 mg/ml saline solution per nostril (weekends eliminated).
(§2) Six animals per group were studied and a repeat of each study conducted to provide up to 12 animals per group in the final data set. Animals were pretreated with Compound 1 (intranasal administration 25 μl per nostril of a suspension or oral administration 1 ml of a solution in 50% deionised water 5% DMSO and 45% PEG 200). At a set time point the animals were anaethetised with urethane (1.5 g/kg) i.p. and scanned with magnetic resonance imaging (MRI) to obtain baseline nasal images. Each animal was then removed from the scanner and received an ipsilateral nasal challenge of capsaicin (50 μl of a solution 0.3 mM 5% DMSO, 5% Tween 80, 90% Phosphate buffered saline)) or 10% hypertonic saline solution (50 μl) (administered by pipette. The animal was rescanned at 10 minutes post-challenge to measure the contralateral fluid volumes.
(§3) The fluid measurement was made using standard T2 weighted spin echo MRI sequences on a 2 Tesla Bruker Medspec MRI scanner. The raw data was collected using Paravision 3.0.2 (Bruker) software. […]

Experiment [3] relates to capsaicin provoked nasal secretion. As to the kind of experiment: Contralateral nasal fluid secretion (MRI) after ipsilateral capsaicin challenge in sensitised guinea pig. It counts as in vivo. To be noted: for reduction of contralateral fluid secretion: oral, non micronised, 1 hour prior to 0.3 mM capsaicin challenge; for inhibition of capsaicin provoked nasal secretion: topical (intranasal) non-micronised. Here is the method: as §1, §2
The fluid measurement was made using standard T2 weighted spin echo MRI sequences on a 2 Tesla Bruker Medspec MRI scanner. The raw data was collected using Paravision 3.0.2 (Bruker) software. Fluid measurements were made using grey level thresholding technique using Mayo Clinic software Analyze 7.0. Statistical analysis was carried out using the Statistica 6.0 software by StatSoft

Experiment [4] has as its system capsaicin provoked nasal tissue response. Put plainly: Contralateral nasal tissue volume (MRI) after ipsilateral capsaicin challenge in guinea pig. To be noted: 1 hour pre-treatment, 0.3 mM capsaicin challenge. Type of experiment: in vivo. Here is the method:
as §1, §2, §3

Each structure is given as a SMILES string.

From patent publication US20110200646A1, “The TRPVL Antagonists SB-795498 For Treating Rhinitis” (priority 2008, published 2011) come the findings set out here.

Consider `COc1cc(CNC(=O)CCCC/C=C/C(C)C)ccc1O` [capsaicin, reference compound], for which the “cells tested producing an inward current” value in experiment [1] (1 μM capsaicin, small diameter (<30 μm) fluorescent neurons, voltage clamped at −70 mV) came out at 56%.

Regarding `O=C(Nc1ccccc1Br)N[C@@H]1CCN(c2ccc(C(F)(F)F)cn2)C1` [Compound 1, N-(2-bromophenyl)-N′-[((R)-1-(5-trifluoromethyl-2-pyridyl)pyrrolidin-3-yl)]urea], in experiment [1] (Cavia porcellus, Neuron, 1 μM capsaicin, voltage clamp −70 mV, room temperature, Hill equation fit, n>4, read-out: IC50, inhibition of capsaicin response (inward current)), the IC50 was found to be 59 nM. In addition, in experiment [1] (voltage clamp −70 mV), the “inhibition of the capsaicin response (current), concentration dependence” value is reported as “concentration related inhibition”. Besides, the “reversibility of inhibition on switching from capsaicin and Compound 1 to capsaicin only” value in experiment [1] (voltage clamp −70 mV) is “rapid reversal”. In experiment [2], the “inhibition of the hypertonic saline response (nasal secretion)” value worked out at 68%. Also, the “reduction of contralateral fluid secretion” value was “ca. 50%” in experiment [3] (10 mg/kg, p<0.05) and “ca. 70%” in experiment [3] (30 mg/kg, p<0.001). In addition, the “inhibition of capsaicin provoked nasal secretion” value is given as > 50% in experiment [3] (10 mg/ml, 1 hour pre-treatment, p<0.005) and “ca. 75%” in experiment [3] (30 mg/ml, 1 hour pre-treatment). In addition, in experiment [3] (topical micronised, 1 hour pre-treatment, all the doses evaluated), the “inhibition of the capsaicin response (nasal secretion)” value was “significant inhibition”. Further, the “inhibition of contralateral response (nasal secretion)” value was found to be 62% in experiment [3] (topical micronised, capsaicin challenge 12 hours after pre-treatment) and 52% in experiment [3] (topical micronised, capsaicin challenge 24 hours after pre-treatment). Moreover, the “reduction of contralateral tissue swelling compared to vehicle control” value in experiment [4] (topical micronised 3 mg/ml, p<0.05) was found to be 56%; in experiment [4] (topical micronised 30 mg/ml, p<0.01), 83%.
